These are literature values, as cited in patent publication US20110208118A1, “COMPOSITIONS AND MEANS FOR TREATING UTERINE LEIOMYOMATA, LEIOMYOMA, MYOMA, UTERINE FIBROIDS, ENDOMETRIOSIS, ADENOMYOSIS AND RELATED DISORDERS BY MIFEPRISTONE” (Bio-Pro Medical Ltd., priority 2007, published 2011).

The subject of this series is uterine leiomyomata.
[1] abbreviates: oral mifepristone doses of 5 mg-50 mg.

In the case of `CC#C[C@]1(O)CC[C@H]2[C@@H]3CCC4=CC(=O)CCC4=C3[C@@H](c3ccc(N(C)C)cc3)C[C@@]21C` [mifepristone], the “Reduction in volume of leiomyomata, 10 mg vs 20 mg groups” value (10 mg and 20 mg mifepristone daily for 12 weeks, women with large leiomyomata (Yang et al.)) is on record as “equivalent in the two groups”. Further, the “regression in the size of uterine leiomyomata” value (5, 25, and 50 mg of mifepristone daily for 12 weeks (Murphy et al.)) is on record as “clinically significant regression”. Under setting [1], the “uterine and uterine fibroids size” value is “reduction in uterine and uterine fibroids size”; the uterine fibroids symptoms result is given as “improvement in uterine fibroids symptoms”.
